Laboratory results taken from patent US11311014B2, “Crystalline forms of ethyl[3-[2-chloro-4-fluoro-5-(1-methyl-6-trifluoromethyl-2,4-dioxo-1,2,3,4-tetrahydropyrimidin-3-yl)phenoxy]-2-pyridyloxy]acetate” (BASF SE, priority 2017, dated 2022).

Assays:
[1] = Stability of modifications suspended in solvent (conversion of crystal modification); format: physicochemical
Experimental: (§1) Studies on the Stability of the modifications of compound of formula (I)
A mixture of forms A and B was suspended in ethanol at 25° C.
Form C.II.1 (consisting of 30 wt. % of form A and 70 wt. % of form D) was suspended in ethanol at 25° C.
Form C.II.1 (consisting of 30 wt. % of form A and 70 wt. % of form D) was suspended in iso-propanol at 25° C.
Form CII.1 (consisting of 30 wt. % of form A and 70 wt. % of form D) was suspended in iso-propanol at 50° C.

[2] = Storage stability of dry powder at room temperature (conversion of crystal modification); format: physicochemical; settings: about 6 weeks
From the text: as §1

For `CCOC(=O)COc1ncccc1Oc1cc(-n2c(=O)cc(C(F)(F)F)n(C)c2=O)c(F)cc1Cl` [Form C.II.1], the “Stability of the modification: phase conversion in suspension” value (from here on “Stability … in suspension”) ([1]; suspended in ethanol at 25° C., after 7 days) was “converted into form A”, the “Stability … in suspension” value ([1]; suspended in iso-propanol at 25° C., after 7 days) was “converted into form A” and the “Stability … in suspension” value ([1]; suspended in iso-propanol at 50° C., after 7 days) was “converted into form A”.
In the case of `CCOC(=O)COc1ncccc1Oc1cc(-n2c(=O)cc(C(F)(F)F)n(C)c2=O)c(F)cc1Cl` [form B, ethyl[3-[2-chloro-4-fluoro-5-(1-methyl-6-trifluoromethyl-2,4-dioxo-1,2,3,4-tetrahydropyrimidin-3-yl)phenoxy]-2-pyridyloxy]acetate], the “Stability of the modification: phase conversion during storage” value [2] is reported as “converts partially into form A”.
In the case of `CCOC(=O)COc1ncccc1Oc1cc(-n2c(=O)cc(C(F)(F)F)n(C)c2=O)c(F)cc1Cl` [mixture of forms A and B], the “Stability … in suspension” value ([1]; suspended in ethanol at 25° C., after 5 days) is reported as “converted into form A”.
